From patent US20110151534A1, “[…] ORGANIC COMPOUNDS USING R[…] […] HALIDE TRANSFERASE” (priority 2007, published 2011)

Key:
[1] = biological target: methyl halide transferase (Batis maritima, UniProt Q9ZSZ7); conditions: halide ion as substrate; Attieh et al. 1995, Ni and Hager 1999; cited from earlier work
S. cerevisiae W303a = assay: Methyl iodide toxicity assay in yeast; assay type: cell-based, Saccharomyces cerevisiae; conditions: OD600 at 24 hours of growth, commercially available CH3I added
From the text: (§1) FIG. 11A-D: Methyl iodide production in recombinant S. cerevisiae. FIG. 11A. CH3I production pathway. The B. maritima MHT is expressed with a N-terminal vacuole targeting tag. The […] MHT methylates iodide ions using SAM as a methyl donor. FIG. 11B, CH3I measured in culture headspace over time. Activity on glucose-grown cells is shown. FIG. 11C, CH3I yields in grams per liter of culture per day. Values for the culturable red algae E. muricata are taken from the literature. Yields from B. maritima MHT-expressing E. coli and S. cerevisiae are calculated by comparison to standard curves. FIG. 11D, CH3I toxicity in yeast. Exponential phase cultures were diluted to an OD600 of 0.05 and commercially available CH3I was added. OD600 was measured at 24 hours of growth. The W303a lab strain is shown in filled boxes, the DNA methylation-sensitive RAD50Δ mutant is shown in open boxes.
(§2) Individual colonies were inoculated in YP media with 2% glucose and grown overnight. Cultures were diluted to an OD600 of 0.05 and methyl iodide was added to the specified amount. […] OD600 was measured by spectrometry with YP media used as a blank. Each data point was performed in triplicate. The RAD50Δ mutant was obtained from the Saccharomyces Genome Deletion Project (Invitrogen).

RAD50Δ mutant = assay type: cell-based, Saccharomyces cerevisiae; conditions: RAD50Δ mutant compared with W303a
From the text: as §1, §2

Sequence of methyl halide transferase (Q9ZSZ7 1-230): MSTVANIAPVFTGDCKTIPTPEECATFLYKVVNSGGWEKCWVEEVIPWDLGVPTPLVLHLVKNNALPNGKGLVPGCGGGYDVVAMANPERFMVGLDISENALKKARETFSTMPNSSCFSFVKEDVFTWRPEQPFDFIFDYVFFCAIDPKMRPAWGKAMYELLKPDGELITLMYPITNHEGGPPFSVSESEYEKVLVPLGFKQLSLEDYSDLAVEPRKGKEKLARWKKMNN

Compound	Km [1] [mM]	level up to which yeast were resistant to deleterious methylating effects of methyl iodide (S. cerevisiae W303a) [µg/mL]	sensitivity to methyl iodide (RAD50Δ mutant)
[Br-].[K+] [Br^−, bromide]	18.5		
I [I^−, iodide]	8.5		
CI [methyl iodide]		> 5000	increased sensitivity
